Assay type in all cases: biochemical
In experiment [1] the target is T1, PtTPS11 (Populus trichocarpa, UniProt A0A076GAR6).
T1 construct: gene TPS11; full ORF in pASK-IBA7 (vector tag, if any, not described), E. coli TOP10, desalted bacterial extract
T1 sequence (A0A076GAR6 1-551): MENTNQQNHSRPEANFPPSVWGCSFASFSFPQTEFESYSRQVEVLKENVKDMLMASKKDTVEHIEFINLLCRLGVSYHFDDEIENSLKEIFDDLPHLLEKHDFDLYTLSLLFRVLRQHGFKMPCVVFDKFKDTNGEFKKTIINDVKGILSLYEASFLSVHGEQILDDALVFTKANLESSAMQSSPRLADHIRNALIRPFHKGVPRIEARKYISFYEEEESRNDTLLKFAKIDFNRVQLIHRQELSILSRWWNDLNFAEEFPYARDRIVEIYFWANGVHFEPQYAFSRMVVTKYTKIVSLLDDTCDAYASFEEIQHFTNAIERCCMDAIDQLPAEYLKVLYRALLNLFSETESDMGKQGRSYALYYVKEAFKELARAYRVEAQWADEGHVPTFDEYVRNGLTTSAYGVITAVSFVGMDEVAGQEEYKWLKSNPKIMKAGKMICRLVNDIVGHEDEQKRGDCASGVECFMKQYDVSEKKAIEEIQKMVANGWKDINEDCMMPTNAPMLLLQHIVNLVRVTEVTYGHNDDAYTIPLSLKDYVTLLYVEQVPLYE
As to the kind of experiment: SPME GC-MS product analysis, bacterial extract. Conditions: 10 uM GPP, 10 mM MgCl2, pH 7.0, 30 C; desalted E. coli extract, empty-vector control.

Experiment [2] concerns the target T2, PtTPS6 (Populus trichocarpa, UniProt A0A076GAR5).
T2 construct: gene TPS6; N-terminally truncated (first 57 nt deleted, predicted plastid transit peptide), pASK-IBA7, E. coli TOP10, desalted bacterial extract
Description: SPME GC-MS product analysis, bacterial extract. Conditions: 10 uM GPP, 10 mM MgCl2, pH 7.0, 30 C; desalted E. coli extract, empty-vector control.

Experiment [3] deals with T3, PtTPS15 (Populus trichocarpa, UniProt A0A076GBT1).
T3 construct: gene TPS15; full ORF in pASK-IBA7 (vector tag, if any, not described), E. coli TOP10, desalted bacterial extract
T3 sequence (A0A076GBT1 1-528): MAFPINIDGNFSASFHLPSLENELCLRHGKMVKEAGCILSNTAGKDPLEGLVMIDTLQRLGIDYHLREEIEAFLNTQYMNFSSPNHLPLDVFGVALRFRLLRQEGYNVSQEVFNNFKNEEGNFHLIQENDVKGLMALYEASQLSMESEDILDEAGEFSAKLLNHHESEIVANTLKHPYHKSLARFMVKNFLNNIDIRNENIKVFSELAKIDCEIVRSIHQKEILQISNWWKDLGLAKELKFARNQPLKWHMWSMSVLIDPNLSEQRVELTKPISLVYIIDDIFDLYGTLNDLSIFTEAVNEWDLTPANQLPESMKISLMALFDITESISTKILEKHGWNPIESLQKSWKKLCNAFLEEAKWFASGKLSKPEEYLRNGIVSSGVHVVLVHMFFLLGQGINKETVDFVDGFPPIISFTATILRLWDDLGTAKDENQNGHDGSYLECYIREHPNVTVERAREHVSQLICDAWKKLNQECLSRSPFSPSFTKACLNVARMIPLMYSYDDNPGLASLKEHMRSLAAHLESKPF
As to the kind of experiment: SPME GC-MS product analysis, bacterial extract. As to conditions: 10 mM MgCl2, pH 7.0, 30 C, desalted E. coli extract, empty-vector control.

The target in experiment [4] is T4, PtTPS12 (Populus trichocarpa, UniProt A0A076GAU9).
T4 construct: gene TPS12; N-terminally truncated (first 126 nt deleted, predicted plastid transit peptide), pASK-IBA7, E. coli TOP10, desalted bacterial extract
T4 sequence (A0A076GAU9 entry or part of it): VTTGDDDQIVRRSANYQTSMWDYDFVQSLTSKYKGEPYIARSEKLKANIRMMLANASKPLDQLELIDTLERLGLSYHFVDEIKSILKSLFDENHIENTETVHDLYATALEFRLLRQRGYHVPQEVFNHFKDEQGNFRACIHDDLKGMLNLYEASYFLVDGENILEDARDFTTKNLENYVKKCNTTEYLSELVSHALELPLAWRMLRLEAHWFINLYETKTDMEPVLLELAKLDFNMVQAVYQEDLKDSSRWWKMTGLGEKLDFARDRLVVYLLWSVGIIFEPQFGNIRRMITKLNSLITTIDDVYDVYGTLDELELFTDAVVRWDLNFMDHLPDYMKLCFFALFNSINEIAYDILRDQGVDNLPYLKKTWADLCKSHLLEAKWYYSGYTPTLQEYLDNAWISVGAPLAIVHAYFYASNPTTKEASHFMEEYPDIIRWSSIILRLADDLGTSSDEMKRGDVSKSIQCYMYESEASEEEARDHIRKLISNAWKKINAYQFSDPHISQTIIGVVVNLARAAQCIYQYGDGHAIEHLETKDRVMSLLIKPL
As to the kind of experiment: SPME GC-MS product analysis, bacterial extract. Conditions: 10 mM MgCl2, pH 7.0, 30 C, desalted E. coli extract, empty-vector control.

In experiment [5] the target is T5, PtTPS10 (Populus trichocarpa, UniProt A0A076GH23).
T5 construct: gene TPS10; full ORF in pASK-IBA7 (vector tag, if any, not described), E. coli TOP10, desalted bacterial extract
T5 sequence (A0A076GH23 1-836): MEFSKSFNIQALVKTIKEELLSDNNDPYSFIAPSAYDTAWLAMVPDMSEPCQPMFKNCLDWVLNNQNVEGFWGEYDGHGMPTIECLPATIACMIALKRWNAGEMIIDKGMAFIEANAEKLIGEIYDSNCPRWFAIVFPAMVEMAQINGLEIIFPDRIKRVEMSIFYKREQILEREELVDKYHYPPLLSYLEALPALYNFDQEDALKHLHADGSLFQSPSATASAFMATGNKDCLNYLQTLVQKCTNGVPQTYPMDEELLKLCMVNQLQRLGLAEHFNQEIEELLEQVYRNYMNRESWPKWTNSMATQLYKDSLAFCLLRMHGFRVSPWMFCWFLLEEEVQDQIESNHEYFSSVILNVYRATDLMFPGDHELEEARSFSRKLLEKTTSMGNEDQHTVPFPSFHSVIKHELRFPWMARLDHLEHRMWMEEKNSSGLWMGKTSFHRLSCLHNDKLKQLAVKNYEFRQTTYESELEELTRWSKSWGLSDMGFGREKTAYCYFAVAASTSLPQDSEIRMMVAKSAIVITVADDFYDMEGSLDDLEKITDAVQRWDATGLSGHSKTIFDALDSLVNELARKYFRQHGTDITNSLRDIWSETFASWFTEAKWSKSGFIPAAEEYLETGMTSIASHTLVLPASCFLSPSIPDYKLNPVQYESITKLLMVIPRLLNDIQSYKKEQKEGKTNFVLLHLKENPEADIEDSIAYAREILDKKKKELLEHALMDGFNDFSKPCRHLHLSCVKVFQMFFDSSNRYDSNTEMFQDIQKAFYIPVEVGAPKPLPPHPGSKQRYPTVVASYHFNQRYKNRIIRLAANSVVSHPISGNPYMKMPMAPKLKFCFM
Description: hexane overlay GC-MS product analysis, bacterial extract. Conditions: 50 uM GGPP, 10 mM MgCl2, pH 7.0, 30 C, 60 min; desalted E. coli extract, empty-vector control.

Experiment [6] concerns the target T6, PtTPS9 (Populus trichocarpa, UniProt A0A076GBT5).
T6 construct: gene TPS9; full ORF in pASK-IBA7 (vector tag, if any, not described), E. coli TOP10, desalted bacterial extract
T6 sequence (A0A076GBT5 1-569): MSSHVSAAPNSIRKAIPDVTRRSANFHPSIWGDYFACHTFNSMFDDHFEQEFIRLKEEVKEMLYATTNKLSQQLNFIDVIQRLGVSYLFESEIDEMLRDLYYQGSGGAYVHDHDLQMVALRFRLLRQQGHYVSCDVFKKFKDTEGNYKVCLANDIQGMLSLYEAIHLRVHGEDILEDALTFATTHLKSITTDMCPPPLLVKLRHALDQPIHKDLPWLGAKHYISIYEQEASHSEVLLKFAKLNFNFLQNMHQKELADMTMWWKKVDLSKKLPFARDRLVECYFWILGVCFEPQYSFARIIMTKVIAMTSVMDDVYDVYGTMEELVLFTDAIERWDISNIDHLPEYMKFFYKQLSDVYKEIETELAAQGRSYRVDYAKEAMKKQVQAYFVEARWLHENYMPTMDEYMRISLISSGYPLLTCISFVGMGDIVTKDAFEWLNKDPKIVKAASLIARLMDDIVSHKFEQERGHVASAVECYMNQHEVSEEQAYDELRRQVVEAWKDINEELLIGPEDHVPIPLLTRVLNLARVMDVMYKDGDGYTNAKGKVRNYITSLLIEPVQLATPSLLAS
Description: SPME GC-MS product analysis, bacterial extract. As to conditions: 10 uM FPP, 10 mM MgCl2, pH 7.0, 30 C; desalted E. coli extract, empty-vector control.

Experiment [7] addresses T7, PtTPS14 (Populus trichocarpa, UniProt A0A076GBU1).
T7 construct: gene TPS14; full ORF in pASK-IBA7 (vector tag, if any, not described), E. coli TOP10, desalted bacterial extract
T7 sequence (A0A076GBU1 1-560): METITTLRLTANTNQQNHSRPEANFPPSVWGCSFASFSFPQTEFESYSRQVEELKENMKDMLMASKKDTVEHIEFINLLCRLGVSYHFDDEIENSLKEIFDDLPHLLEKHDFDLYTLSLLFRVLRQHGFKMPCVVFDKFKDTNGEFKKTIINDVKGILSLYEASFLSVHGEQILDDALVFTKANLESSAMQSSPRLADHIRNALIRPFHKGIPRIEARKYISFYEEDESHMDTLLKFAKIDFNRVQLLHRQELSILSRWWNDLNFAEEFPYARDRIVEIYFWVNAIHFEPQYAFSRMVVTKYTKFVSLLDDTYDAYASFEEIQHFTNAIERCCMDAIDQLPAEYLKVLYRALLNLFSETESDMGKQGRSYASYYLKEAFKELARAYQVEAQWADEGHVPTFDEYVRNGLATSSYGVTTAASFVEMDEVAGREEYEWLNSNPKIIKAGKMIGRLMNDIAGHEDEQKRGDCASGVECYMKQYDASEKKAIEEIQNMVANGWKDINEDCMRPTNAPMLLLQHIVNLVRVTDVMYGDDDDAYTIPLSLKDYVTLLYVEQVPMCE
As to the kind of experiment: SPME GC-MS product analysis, bacterial extract. Conditions: 10 uM FPP, 10 mM MgCl2, pH 7.0, 30 C; desalted E. coli extract, empty-vector control; marginal activity.

T2 sequence (A0A076GAR5 entry or part of it): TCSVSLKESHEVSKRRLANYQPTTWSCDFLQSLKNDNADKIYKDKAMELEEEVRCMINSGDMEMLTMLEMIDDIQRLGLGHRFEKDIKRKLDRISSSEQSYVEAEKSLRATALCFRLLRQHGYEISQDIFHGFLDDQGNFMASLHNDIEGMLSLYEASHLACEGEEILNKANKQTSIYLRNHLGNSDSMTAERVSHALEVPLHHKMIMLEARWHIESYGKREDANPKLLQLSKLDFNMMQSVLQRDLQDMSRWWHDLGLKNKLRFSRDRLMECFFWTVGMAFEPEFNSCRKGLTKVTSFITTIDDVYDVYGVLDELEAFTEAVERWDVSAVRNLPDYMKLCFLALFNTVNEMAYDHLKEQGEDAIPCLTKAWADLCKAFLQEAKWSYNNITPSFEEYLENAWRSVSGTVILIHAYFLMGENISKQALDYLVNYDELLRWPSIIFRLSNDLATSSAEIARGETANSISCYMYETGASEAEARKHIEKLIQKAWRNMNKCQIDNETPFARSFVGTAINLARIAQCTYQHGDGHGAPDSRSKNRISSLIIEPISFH

With `CC(C)=CCC/C(C)=C/COP(=O)(O)OP(=O)(O)O` [GPP], the “SPME GC-MS product analysis, bacterial extract” value in experiment [1] was “When offered GPP as a substrate, PtTPS11 formed several monoterpenes”; in experiment [2] it was “(PtTPS6, PtTPS12, PtTPS13 and PtTPS15) accepted GPP as substrate and produced monoterpenes”; in experiment [3] (10 uM GPP) it was “PtTPS15, which produced only linalool”; in experiment [4] (10 uM GPP), “PtTPS12 which formed linalool and trace amounts of β-phellandrene”.

Take `CC(C)=CCC/C(C)=C/CC/C(C)=C/CC/C(C)=C/COP(=O)(O)OP(=O)(O)O` [GGPP]: in experiment [5], the “hexane overlay GC-MS product analysis, bacterial extract” value is “PtTPS10 represented a DTS and was able to convert GGPP into geranyllinalool”.

For `CC(C)=CCC/C(C)=C/CC/C(C)=C/COP(=O)(O)OP(=O)(O)O` [FPP], the “SPME GC-MS product analysis, bacterial extract” value in experiment [6] was “PtTPS9 produced (E)-β-caryophyllene and smaller amounts of α-humulene”; in experiment [7], “PtTPS14 showed only marginal activity with FPP and produced trace amounts of germacrene D”; in experiment [3] (10 uM FPP), “PtTPS15 was able to convert FPP to nerolidol”; in experiment [4] (10 uM FPP), “PtTPS12 showed a broad sesquiterpene product spectrum”.

The values are drawn from article PMC4197230, “Terpene synthases and their contribution to herbivore-induced volatile emission in western balsam poplar (Populus trichocarpa)” (BMC Plant Biology, 2014).
